# Laboratory results taken from paper PMC6222828, “Synthesis of Gemcitabine-Threonine Amide Prodrug Effective on Pancreatic Cancer Cells with Improved Pharmacokinetic Properties” (Molecules : A Journal of Synthetic Chemistry and Natural …, 2018).
# Entries after “also recorded” stand apart in the source; their conditions may differ. Like-named read-outs stand apart in the source and are kept apart here.
# Columns and labels:
# MIAPaCa-2 cells = assay: MTT cytotoxicity assay in MIAPaCa-2 cells; format: cell-based, Human; conditions: 1 μM, 48 h
# Description: (§1) Figure 3 Growth-inhibitory effects of gemcitabine and of its amino-acid-conjugated derivatives on BxPC-3, MIAPaCa-2, A549, MDA-MB-231 B16 cells after exposure to 1 μM concentrations for 48 h, as estimated by MTT assay (mean ± SD, n = 3). Experiments were performed three times independently. * p < 0.05, compared with free gemcitabine group.
# (§2) Human pancreatic cancer cells (MIAPaCa-2, BxPC-3 and AsPC-1), lung cancer cell lines (A549), human breast cancer cell lines (MDA-MB-231) and melanoma cell lines (B16) were purchased from the American Type Culture Collection (Manassas, VA, USA). MIAPaCa-2 and B16-F10 cells were cultured in Dulbecco’s modified Eagle’s medium (DMEM) supplemented with 10% heat-inactivated fetal bovine serum (FBS) and 1% penicillin/streptomycin. Aspc-1, BxPC-3 MDA-MB-231 and A549 cells were cultured in Roswell Park Memorial Institute 1640 (RPMI-1640) medium supplemented with 10% FBS and 1% penicillin/streptomycin. FBS and all other reagents used for cell culture were purchased from Invitrogen (Carlsbad, CA, USA). Cultures were maintained at 37 °C in 95% air /5% CO2 humidified atmosphere.
# (§3) Cancer cell viabilities after treatment with gemcitabine or its derivatives were quantified using MTT assay as described previously. […] After incubation for 4 h, optical densities (OD) were determined using a microplate reader by measuring absorbances at 540 nm.
# [1] = tested on: MDA-MB-231 (breast cancer cells); assay: MTT cytotoxicity assay in MDA-MB-231 cells; format: cell-based, human; conditions: 1 μM, 48 h
# Description: as §1, §2, §3
# [2] = parameters: method as in PMID 18519786; conditions: in man; cited from earlier work
# BxPC-3 cells [3] = assay: Apoptosis: cleaved PARP western blot and TUNEL assay; format: cell-based, Human; conditions: 1 µM, 24 h treatment
# Description: BxPC-3 cells were washed with DPBS and lysed with RIPA buffer (Biosesang, Seongnam, Korea) containing 150 mM NaCl, 1% Triton X-100, 1% sodium deoxycholate, 0.1% SDS, 50 mM Tris-HCl (pH 7.5), 2 mM EDTA (pH 8.0), and Xpert protease inhibitor and phosphatase inhibitor Cocktail (GenDEPOT, Barker, TX, USA). Proteins were separated by 8% or 15% SDS-PAGE (sodium dodecylsulfate-polyacrylamide gel electrophoresis) and transferred to polyvinylidene fluoride (PVDF) membranes. […] Antibody binding was detected using an enhanced chemiluminescence (ECL) reagent (Bio-Rad, Hercules, CA, USA) using primary antibodies specific to proteins of interest, and proteins were detected using X-ray film and enhanced chemiluminescence reagent. Primary antibodies against the following were used: LAT-1, cleaved PARP (Cell Signaling Technologies, Beverly, MA, USA), GAPDH (Abcam, Cambridge, MA, USA), and β-actin (Sigma Aldrich, St. Louis, MO, USA). Secondary antibodies were purchased from Cell signaling technology.
# TUNEL assay was conducted with the ApopTag® Peroxidase In Situ Apoptosis Detection Kit (Merck Millipore, Burlington, MA, USA). Briefly, BxPC-3 cells were seeded onto 18-mm cover glasses in medium and grown to ~70% confluence over 24 h.
# BxPC-3 cells [4] = assay: MTT cytotoxicity assay in BxPC-3 cells; format: cell-based, Human; conditions: 48 h
# Description: as §1, §2
# Cancer cell viabilities after treatment with gemcitabine or its derivatives were quantified using MTT assay as described previously. Briefly, cells were seeded onto 96-well plates at 3 × 10^3 cells per well and incubated at 37 °C. The cells were treated with each compound at indicated concentrations for 48 h and then, 20 μL of MTT labeling mixture was added to each well. After incubation for 4 h, optical densities (OD) were determined using a microplate reader by measuring absorbances at 540 nm.
# A549 (lung cancer cells) = assay: MTT cytotoxicity assay in A549 cells; format: cell-based; conditions: 1 μM, 48 h
# Description: as §1, §2, §3
# B16 (melanoma cells) = assay: MTT cytotoxicity assay in B16 cells; format: cell-based; conditions: 1 μM, 48 h
# Description: Human pancreatic cancer cells (MIAPaCa-2, BxPC-3 and AsPC-1) [21], lung cancer cell lines (A549) [22], human breast cancer cell lines (MDA-MB-231) [23] and melanoma cell lines (B16) [24] were purchased from the American Type Culture Collection (Manassas, VA, USA). MIAPaCa-2 and B16-F10 cells were cultured in Dulbecco’s modified Eagle’s medium (DMEM) supplemented with 10% heat-inactivated fetal bovine serum (FBS) and 1% penicillin/streptomycin. Aspc-1, BxPC-3 MDA-MB-231 and A549 cells were cultured in Roswell Park Memorial Institute 1640 (RPMI-1640) medium supplemented with 10% FBS and 1% penicillin/streptomycin. […] Cultures were maintained at 37 °C in 95% air /5% CO2 humidified atmosphere.
# Cancer cell viabilities after treatment with gemcitabine or its derivatives were quantified using MTT assay as described previously [25]. Briefly, cells were seeded onto 96-well plates at 3 × 10^3 cells per well and incubated at 37 °C. The cells were treated with each compound at indicated concentrations for 48 h and then, 20 μL of MTT labeling mixture was added to each well. After incubation for 4 h, optical densities (OD) were determined using a microplate reader by measuring absorbances at 540 nm.
# [5] = Systemic (intravenous) pharmacokinetics in rats; format: in vivo, rat; conditions: 4 mg/kg i.v.
# Description: This study was performed in male Sprague-Dawley (SD) rats (Orient Bio, Sungnam, Korea), as described previously. Rats were provided water and food ad libitum and maintained under a 12:12-h light/dark cycle. On the experimental day, a femoral vein and contralateral artery were cannulated using an Intramedic™ polyethylene tube (PE-50; Becton Dickinson Diagnostics, Sparks, MD, USA) under Zoletil induced anesthesia (50 mg/kg intramuscularly; Virbac, Carros, France). For the intravenous pharmacokinetic study, Gem-Thr or gemcitabine solution were injected into a femoral vein at 4 mg/kg. Blood (~0.22 mL) was taken from the femoral artery at 0 (blank), 1, 5, 15, 30, 60, 120, 240, 480, 720, or 1440 min. To prevent blood loss, the same volume of normal saline was injected intravenously at each time point. Plasma was obtained immediately centrifugation and then stored at −80 °C prior to LC-MS/MS.
# The pharmacokinetic parameters of Gem-Thr, gemcitabine, Gem-Thr plus gemcitabine, and free gemcitabine were calculated by non-compartmental analysis using WinNonlin (Version 3.1; Pharsight, Mountain View, CA, USA), as described previously (Park et al., 2016).
# To determine concentrations of Gem-Thr and gemcitabine in rat plasma, plasma samples were deproteinized by adding two volumes of acetonitrile containing internal standard (phenacetin). After mixing, mixtures were centrifuged at 14,000× g for 10 min.
# Aliquots of supernatants (2-µL) were injected into the LC-MS/MS system, which consisted of an Agilent HPLC and an Agilent 6490 QQQ mass spectrometer equipped with an ESI+ Agilent Jet Stream ion source (Agilent Technologies, Santa Clara, CA, USA). The separation of each drug and IS from endogenous plasma substances was achieved on a Synergi Polar-RP 80A column (150 × 2.0 mm, 4 μm; Phenomenex, Torrance, CA, USA). The mobile phase consisted of 0.1% formic acid and acetonitrile (20:80, v/v) at a flow rate of 0.2 mL/min. The column and autosampler tray were maintained at 25 and 4 °C, respectively. Gemcitabine, Gem-Thr, and the IS were quantified by multiple-reaction monitoring (MRM) in positive electrospray ionization mode. Respective precursor-to-product ion transitions were as follows: Gemcitabine, 264.1→112.1, Gem-Thr, 387.1→343.2, and IS (phenacetin), 180.2→162.2. Data acquisition was performed using Mass Hunter software (ver. A.02.00; Agilent Technologies).
# [6] = parameters: method as in PMID 19860433; conditions: cited from earlier work
# [7] = 37 °C
# Description: The metabolic stability of Gem-Thr was examined in the presence of PBS (pH 7.4), rat plasma, or liver microsomes as described previously (Maeng et al., 2014). Fresh rat plasma was obtained from sacrificed SD rats (260–280 g) after centrifuging blood (12,000× g, 15 min). Rat liver microsomes were obtained from BD Gentest. Gem-Thr (10 µM) was spiked into PBS, blank rat plasma, or liver microsomes (1 mg protein/mL) and incubated in a shaking water bath at 37 °C for 8 h. Aliquots (50-µL) were taken after 0, 15, 30, 60, 120, 240, […], or 480 min of incubation, immediately pretreated with ice-cold methanolic solution including the internal standard, vortexed for 3 min and centrifuged (12,000× g, 10 min). Supernatants were stored at −80 °C until required for analysis.
# [8] = analyte = administered compound
smiles,measurement,setting,value
"Nc1ccn([C@@H]2O[C@H](CO)[C@@H](O)C2(F)F)c(=O)n1 [gemcitabine, 2′-2′-difluorodeoxycytidine]",anti-cancer effect (cytotoxicity),MIAPaCa-2 cells,significant anti-cancer effects
same,anti-cancer effect versus vehicle treated controls,[1],neither gemcitabine nor gemcitabine derivatives had any significant anti-cancer effect
same,half-life,[2],9 min
same,"apoptosis (cleaved PARP, TUNEL positive cells)",BxPC-3 cells [3],induced apoptosis significantly
same,anti-cancer effect (cytotoxicity),BxPC-3 cells [4]; 1 μM,significant anti-cancer effects
same,viability at 1 µM,"BxPC-3 cells [4]; Homo sapiens, read-out: cell viability",54.1%
same,anti-cancer effect versus vehicle treated controls,A549 (lung cancer cells),neither gemcitabine nor gemcitabine derivatives had any significant anti-cancer effect
same,anti-cancer effect (cytotoxicity),B16 (melanoma cells),significant anti-cancer effects
same,clearance,"[5]; male, Sprague-Dawley, rat, plasma, iv, analyte = administered compound",4.23 ± 0.23 mL/min/kg
same,AUC,"[5]; male, Sprague-Dawley, rat, plasma, iv, analyte = administered compound, read-out: AUC (converted)",15800 ng·h/mL
same,MRT,"[5]; male, Sprague-Dawley, rat, plasma, iv, analyte = administered compound, read-out: MRT (converted)",9.7 h
same,half-life,"[5]; male, Sprague-Dawley, rat, plasma, iv, analyte = administered compound, read-out: Terminal t1/2",8.88 ± 2.96 h
same,Vd,"[5]; male, Sprague-Dawley, rat, plasma, iv, analyte = administered compound, read-out: Vss",2.48 ± 0.867 L/kg
same,oral bioavailability (BA),[6],low oral bioavailability
"C[C@@H](O)[C@H](N)C(=O)Nc1ccn([C@@H]2O[C@H](CO)[C@@H](O)C2(F)F)c(=O)n1 [Gem-Thr, (2S,3R)-2-Amino-N-(1-((2R,4R,5R)-3,3-difluoro-4-hydroxy-5-(hydroxylmethyl)tetra-hydrofuran-2-yl)-2-oxo-1,2-dihydropyrimidin-4-yl)-3-hydroxybutanamide2-(4-((pyridin-3-ylmethyl)amino)quinazolin-2-yl)phenol]",anti-cancer effect (cytotoxicity),MIAPaCa-2 cells,most potent anticancer effect; also recorded: more effective than free gemcitabine
same,fraction of Gem-Thr metabolized in rat plasma,"[7]; 10 µM, after 8 h",20%
same,metabolic stability in rat plasma,"[7]; 10 µM, up to 8 h",metabolically stable
same,stability in PBS,"[7]; PBS pH 7.4, 10 µM, up to 8 h",metabolically stable
same,metabolic stability in rat liver microsomal fractions,"[7]; rat liver microsomes 1 mg protein/mL, 10 µM, up to 8 h",metabolically stable
same,"apoptosis (cleaved PARP, TUNEL positive cells)",BxPC-3 cells [3],induced apoptosis significantly
same,anti-cancer effect (cytotoxicity),BxPC-3 cells [4]; 1 μM,most potent anticancer effect; also recorded: more effective than free gemcitabine
same,cell viability,BxPC-3 cells [4]; 1 μM,44.7%
same,AUC of sum of Gem-Thr and gemcitabine (metabolite) versus gemcitabine alone,[5],3.62 fold
same,AUC,[5]; [8],28564.2 ± 18040 ng·h/mL
same,CL,[5]; [8],2.85 ± 1.33 mL/min/kg
same,MRT,[5]; [8],3.953 ± 0.3478 h
same,Terminal t1/2,[5]; [8],3.9363 ± 0.849 h
same,Vss,[5]; [8],0.66235 ± 0.2814 L/kg
same,increase of systemic exposure (AUC of gemcitabine) versus free gemcitabine,[5]; formed gemcitabine vs free gemcitabine,1.83 fold
